According to patent US10899747B2, “Biaryl piperidine amide compounds and methods of use thereof” (Athenex, Inc., priority 2017, dated 2021):

The molecules below were run on IL-2 (assay: PHA-IL2 (cell activation and cytokine analysis)). Settings: 50% inhibition concentration class.
Format: cell-based
Procedure: Cells to be tested may include, but are not limited to, a) Jurkat (a transformed human T cell leukemia), b) whole blood isolated from human or rodent sources, c) peripheral blood mononuclear cells (PBMC) freshly isolated from human or rodent whole blood, or d) purified fractions of PBMC (e.g., CD4 T cells). Cells are plated in 96-well plates at a final density of 1.0-2.0×10^6 cells/ml in 150 ul of assay medium (RPMI+0.5% fetal calf serum). Test compounds are included at a final concentration of ≤20 uM and generally pre-incubated with cells for 30 minutes prior to stimulation. An appropriate stimulus is added, including but not limited to, a) phytohemagglutinin (PHA), b) phorbol myristate acetate (PMA) and ionomycin, or c) stimulatory antibodies to the T cell receptor (TCR) complex (e.g., anti-CD3ε) and CD28. Cell cultures are stimulated for 24-48 hours in a humidified incubator (37 degrees C./5% CO2). A fraction of the culture supernatant is than harvested from each well and assayed for the presence of appropriate cytokine using standard ELISA. Cytokines to be analyzed may include IL-2, IL-4, IL-10, IL-17, IL-22, IFNγ, and/or TNFα. If required, the number of cytokine producing cells can be determined using intracellular staining and flow cytometry. […]

Structure (SMILES) | IC50
O=C(COc1ccccc1-c1ccccc1O)N1CCC(CCc2ccc(O)cc2)CC1 [Compound 282] | < 1 µM
O=C(COc1ccccc1-c1ccc(Cl)nc1)N1CCC(CCc2ccc(O)cc2)CC1 [Compound 283] | < 1 µM
O=C1NCCOc2ccc(CCC3CCN(C(=O)COc4ccccc4-c4ccccc4)CC3)cc21 [Compound 284] | < 1 µM
O=C(COc1ccccc1-c1ccccc1)N1CCC(CCc2cc3c(cc2CO)OCO3)CC1 [Compound 285] | 1 to 10 µM
O=C(CSc1ccccc1-c1ccccc1)N1CCC(CCc2ccc3c(c2)OCO3)CC1 [Compound 286] | 1 to 10 µM
COc1cccc(CCC2CCN(C(=O)CSc3ccccc3-c3ccccc3)CC2)c1 [Compound 287] | 1 to 10 µM
O=C(COc1ccccc1-c1ccc(F)cc1O)N1CCC(CCc2ccc3c(c2)OCO3)CC1 [Compound 288] | < 1 µM
N#Cc1ccc(-c2ccccc2OCC(=O)N2CCC(CCc3ccc4c(c3)OCO4)CC2)cn1 [Compound 289] | < 1 µM
COC(=O)c1ccc(CCC2CCN(C(=O)COc3ccccc3-c3ccc(C#N)cc3)CC2)cc1 [Compound 290] | < 1 µM
N#Cc1ccc(-c2ccccc2OCC(=O)N2CCC(CCc3ccc4c(c3)OCCO4)CC2)cc1 [Compound 291] | < 1 µM
O=C(COc1ccccc1-c1ccc(Cl)nc1)N1CCC(CCc2ccc3c(c2)OCCO3)CC1 [Compound 292] | 1 to 10 µM
O=C(COc1ccccc1-c1ccc2[nH]ncc2c1)N1CCC(CCc2ccc3c(c2)OCCO3)CC1 [Compound 293] | < 1 µM
O=C(COc1ccccc1-c1ccc(F)cc1)N1CCC(CCc2ccc3c(c2)OCCO3)CC1 [Compound 294] | 1 to 10 µM
O=C(COc1ccccc1-c1ccccc1O)N1CCC(CCc2ccc3c(c2)OCCO3)CC1 [Compound 295] | 1 to 10 µM
O=C(COc1ccccc1-c1ccc(F)cc1O)N1CCC(CCc2ccc3c(c2)OCCO3)CC1 [Compound 296] | < 1 µM
N#Cc1ccc(-c2ccccc2OCC(=O)N2CCC(CCc3ccc4c(c3)OCCO4)CC2)cn1 [Compound 297] | < 1 µM
Cc1cc2c(cc1CCC1CCN(C(=O)COc3ccccc3-c3ccc(C#N)cc3)CC1)OCO2 [Compound 298] | < 1 µM
N#Cc1ccc(-c2ccccc2OCC(=O)N2CCC(CCc3cccc4c3OCO4)CC2)cc1 [Compound 299] | < 1 µM

Structure (SMILES) | IC50
CCCOc1ccc(CCC2CCN(C(=O)COc3ccccc3-c3ccc(C#N)cc3)CC2)cc1OCCC [Compound 300] | < 1 µM
CC(C)Oc1ccc(CCC2CCN(C(=O)COc3ccccc3-c3ccc(C#N)cc3)CC2)cc1OC(C)C [Compound 301] | < 1 µM
CC1CC(CCc2ccccc2)CCN1C(=O)COc1ccccc1-c1ccc(C#N)cc1 (centres unmarked) [Compound 302] | < 1 µM
CC1CC(CCc2ccccc2)CCN1C(=O)COc1ccccc1-c1ccc(F)cc1O (centres unmarked) [Compound 303] | 1 to 10 µM
COc1cccc(CCC2CCN(C(=O)COc3ccccc3-c3ccc(F)cc3O)CC2)c1 [Compound 304] | < 1 µM
O=C(COc1ccccc1-c1ccc(F)cc1O)N1CCC(CCc2ccc(N3CCOCC3)cc2)CC1 [Compound 305] | < 1 µM
Cc1ccc(F)cc1CCC1CCN(C(=O)COc2ccccc2-c2ccc(F)cc2O)CC1 [Compound 306] | < 1 µM
O=C(COc1ccccc1-c1ccc(F)cc1O)N1CCC(CCc2ccc(F)c(C(F)(F)F)c2)CC1 [Compound 307] | 1 to 10 µM
COCc1ccc(CCC2CCN(C(=O)COc3ccccc3-c3ccc(F)cc3O)CC2)cc1 [Compound 308] | < 1 µM
CCOc1ccc(CCC2CCN(C(=O)COc3ccccc3-c3ccc(F)cc3O)CC2)cc1 [Compound 309] | < 1 µM
O=C(COc1ccccc1-c1ccc(F)cc1O)N1CCC(CCc2cccc(C(F)(F)F)c2)CC1 [Compound 310] | < 1 µM
CCOc1ccc(CCC2CCN(C(=O)COc3ccccc3-c3ccc(C(=O)c4ccccc4)cc3)CC2)cc1 [Compound 311] | < 1 µM
O=C(C[S+]([O-])c1ccccc1-c1ccccc1)N1CCC(CCc2ccccc2)CC1 (centres unmarked) [Compound 312] | 10 to 50 µM
COc1cccc(CCC2CCN(C(=O)C[S+]([O-])c3ccccc3-c3ccccc3)CC2)c1 (centres unmarked) [Compound 313] | 10 to 50 µM
O=C(c1ccccc1)c1ccc(-c2ccccc2OCC(=O)N2CCC(CCc3ccc(O)cc3)CC2)cc1 [Compound 314] | < 1 µM
N#Cc1ccc(-c2cc(C(=O)O)ccc2OCC(=O)N2CCC(CCc3ccccc3)CC2)cc1 [Compound 315] | 1 to 10 µM
CN(C)C(=O)c1ccc(OCC(=O)N2CCC(CCc3ccccc3)CC2)c(-c2ccc(C#N)cc2)c1 [Compound 316] | 1 to 10 µM

More lines, now with the values ahead:

IC50 | Structure (SMILES)
< 1 µM | CC(C)NC(=O)c1ccc(OCC(=O)N2CCC(CCc3ccccc3)CC2)c(-c2ccc(C#N)cc2)c1 [Compound 317]
1 to 10 µM | N#Cc1ccc(-c2cc(C(=O)N3CCOCC3)ccc2OCC(=O)N2CCC(CCc3ccccc3)CC2)cc1 [Compound 318]
10 to 50 µM | CC(C)NC(=O)c1ccc(OCC(=O)N2CCC(CCc3ccccc3)CC2)c(-c2ccc(F)cc2O)c1 [Compound 319]
< 1 µM | NC(=O)c1ccc(OCC(=O)N2CCC(CCc3ccccc3)CC2)c(-c2ccc(F)cc2O)c1 [Compound 320]
1 to 10 µM | N#Cc1ccc(-c2cc(C(N)=O)ccc2OCC(=O)N2CCC(CCc3ccccc3)CC2)cc1 [Compound 321]
1 to 10 µM | N#Cc1ccc(-c2cc(C(=O)NCCO)ccc2OCC(=O)N2CCC(CCc3ccccc3)CC2)cc1 [Compound 322]
1 to 10 µM | N#Cc1ccc(-c2ncccc2OCC(=O)N2CCC(CCc3ccc4c(c3)OCO4)CC2)cc1 [Compound 323]
1 to 10 µM | N#Cc1ccc(-c2cccnc2OCC(=O)N2CCC(CCc3ccc4c(c3)OCO4)CC2)cc1 [Compound 324]
1 to 10 µM | CN(C)CCNC(=O)c1ccc(OCC(=O)N2CCC(CCc3ccccc3)CC2)c(-c2ccc(C#N)cc2)c1 [Compound 325]
1 to 10 µM | O=C(COc1cccnc1-c1ccc(F)cc1O)N1CCC(CCc2ccc3c(c2)OCO3)CC1 [Compound 326]
10 to 50 µM | N#Cc1ccc(-c2cnccc2OCC(=O)N2CCC(CCc3ccc4c(c3)OCO4)CC2)cc1 [Compound 327]
1 to 10 µM | O=C(COc1cccnc1-c1ccc2[nH]ncc2c1)N1CCC(CCc2ccc3c(c2)OCO3)CC1 [Compound 328]
10 to 50 µM | O=C(COc1ncccc1-c1ccc(F)cc1O)N1CCC(CCc2ccc3c(c2)OCO3)CC1 [Compound 329]
1 to 10 µM | O=C(COc1cccnc1-c1ccc(F)cc1O)N1CCC(CCc2ccccc2)CC1 [Compound 330]
10 to 50 µM | O=C(COc1ccncc1-c1ccc(F)cc1O)N1CCC(CCc2ccc3c(c2)OCO3)CC1 [Compound 331]
1 to 10 µM | O=C(c1ccccc1)c1ccc(-c2ccccc2OCC(=O)N2CCC(CCc3cc(Br)c(O)c(Br)c3)CC2)cc1 [Compound 332]
10 to 50 µM | Cc1cc(F)ncc1-c1ncccc1OCC(=O)N1CCC(CCc2ccccc2)CC1 [Compound 333]
1 to 10 µM | N#Cc1ccc(-c2ncccc2OCC(=O)N2CCC(CCc3ccccc3)CC2)cn1 [Compound 334]

IC50 | Structure (SMILES)
1 to 10 µM | N#Cc1ccc(-c2ncccc2OCC(=O)N2CCC(CCc3ccc4c(c3)OCCO4)CC2)cn1 [Compound 335]
10 to 50 µM | Cc1cc(F)ncc1-c1ncccc1OCC(=O)N1CCC(CCc2ccc3c(c2)OCCO3)CC1 [Compound 336]
< 1 µM | O=C(COc1cccnc1-c1ccc(F)cc1O)N1CCC(CCc2ccc3c(c2)OCCO3)CC1 [Compound 337]
1 to 10 µM | O=C(COc1cccnc1-c1ccc(F)cc1O)N1CCC(CCc2ccc3c(c2)OCCCO3)CC1 [Compound 338]
1 to 10 µM | O=C(COc1cccnc1-c1ccc(F)nc1)N1CCC(CCc2ccc3c(c2)OCCCO3)CC1 [Compound 339]
1 to 10 µM | O=C(COc1cccnc1-c1ccc(F)nc1)N1CCC(CCc2ccc3c(c2)OCO3)CC1 [Compound 340]
1 to 10 µM | O=C(COc1cccnc1-c1ccc(F)nc1)N1CCC(CCc2ccc3c(c2)OCCO3)CC1 [Compound 341]
10 to 50 µM | N#Cc1ccc(-c2ncccc2OCC(=O)N2CCC(CCc3ccc4c(c3)OCCCO4)CC2)cn1 [Compound 342]
10 to 50 µM | O=C(COc1ccccc1-c1ccc2cc[nH]c2c1)N1CCC(CCc2ccc3c(c2)OCCCO3)CC1 [Compound 343]
1 to 10 µM | O=C(/C=C/c1ccccc1-c1ccc(F)cc1O)N1CCC(CCc2ccc3c(c2)OCO3)CC1 [Compound 344]
< 1 µM | N#Cc1ccc(OCC(=O)N2CCC(CCc3ccccc3)CC2)c(-c2ccc(F)cc2O)c1 [Compound 345]
< 1 µM | N#Cc1ccc(OCC(=O)N2CCC(CCc3ccc4c(c3)OCO4)CC2)c(-c2ccc(F)cc2O)c1 [Compound 346]
< 1 µM | N#Cc1ccc(OCC(=O)N2CCC(CCc3ccc4c(c3)OCCO4)CC2)c(-c2ccc(F)cc2O)c1 [Compound 347]
< 1 µM | O=C(COc1ccccc1-c1ccc(F)cc1O)N1CCC(CCc2ccccc2)CC1 [Compound 348]
1 to 10 µM | O=C(COc1ccccc1-c1ccc(F)cc1O)N1CCC(CCc2ccc(OCCN3CCOCC3)cc2)CC1 [Compound 349]
< 1 µM | COc1cccc(CCC2CCN(C(=O)COc3cccnc3-c3ccc(F)cc3O)CC2)c1 [Compound 350]
< 1 µM | O=C(COc1ccc(C(F)(F)F)cc1-c1ccc(F)cc1O)N1CCC(CCc2ccccc2)CC1 [Compound 351]
< 1 µM | COc1cccc(CCC2CCN(C(=O)COc3ccc(C#N)cc3-c3ccc(F)cc3O)CC2)c1 [Compound 352]
